Experimental data as given in patent US7054685B2, “Method and apparatus for reducing electroporation-mediated muscle reaction and pain response” (Genetronics, Inc., priority 1999, dated 2006).

How the values were obtained:
[1] = octanol and water; cited from earlier work
HEp-2 tumors = assay: Electroporation therapy of HEp-2 tumors implanted subcutaneously in nude mice (intratumoral drug plus bipolar square pulses); type: in vivo, BALB/c A nu/nu mice
Method: BALB/c A nu/nu mice were surgically implanted with HEp-2 tumors in a subcutaneous sac made in the right flank of nude mice. The tumors 34 were allowed to grow and were treated when their average size was about 80 mm^3. The drug, bleomycin, 0.5 units dissolved in 0.15 ml of saline, was injected in each mouse intratumorally using a 30 gauge needle. The drug was injected very slowly at the tumor base and the needle direction rotated (fanning technique) for uniform drug distribution in the tumor 34. The mice in the control were only pulsed D−E+; D=Drug, E=Electric field, +/−denote presence or absence, respectively) while those in the treated group were pulsed and received drug (D+E+). A time lapse of 10+/−1 minute was maintained between the drug injection and the application of electric pulse to allow bleomycin to spread uniformly throughout the tumor 34. The electrical pulses, generated by the prototype bipolar square wave pulse generator, were delivered to the tumor 34 through a 6-needle array (see for example, U.S. Pat. No. 5,702,359 herein incorporated by reference), inserted to the depth of the tumor 34. […] The mice in both the control and pulse-treated groups were monitored every day for mortality and sign of any other disease.
FIG. 16 illustrates the results for the experimental and control groups.

bleomycin
log P [1]: very negative
tumor volume (HEp-2 tumors; D+E+ group, versus substantial increase in control group D-E+): decreased
treated mice with complete tumor regression (HEp-2 tumors; D+E+ group, bleomycin 0.5 units in 0.15 ml saline intratumorally, bipolar square pulses via 6-needle array 10+/-1 min later, 65 days following treatment, 7/8 mice): 87.5%
treated mice with partial regression (HEp-2 tumors; D+E+ group, bleomycin 0.5 units intratumorally plus bipolar square pulses, 65 days following treatment, 1/8 mice): 12.5%
tumor reaction to electroporation therapy (HEp-2 tumors; nearly all the mice treated by both the drug (D) and the pulse (E)): severe early edema, and later necrosis of the tumor
extent of partial tumor regression (HEp-2 tumors; the 1/8 D+E+ mouse with partial regression): > 80%
